Test results as given in patent US20150359812A1, “PROPHYLACTIC/THERAPEUTIC AGENT FOR DRY EYE” (priority 2012, published 2015).

Tests used:
[1] = test system: radical oxygen species in lacrimal gland tissue; experiment: Inhibitory action to radical oxygen species using isolated lacrimal glands of mice (DCFH-DA fluorescence); assay type: cell-based; conditions: for inhibition of radical oxygen by isolated delphinidin glycosides, FIG. 6: lacrimal gland cell suspension, DCFH-DA; for inhibition of radical oxygen in lacrimal cells, FIG. 12: comparison of delphinidin glycosides
Experimental: The action of the maqui berry extract to radical oxygen species in lacrimal gland tissue was evaluated using mice […].
The evaluation of the inhibitory action to radical oxygen species was done in the following way.
An isolated lacrimal gland was placed in a test tube, and 25 mg tissue/mL of cold phosphate-buffered saline (PBS) was added. After that, zirconia beads were added to the lacrimal gland that is to be crushed by a bead grinder. Then, 50 μL each of cell suspension was dispensed. Then, the maqui berry extract of Working Example 1 (1, 10 μg/mL) was added to the cell suspension, and then DCFH-DA solution as the radical oxygen series was added to make the final level of concentration at 75 μm. Then, after 60 minutes of incubation at 37 degrees Celsius, the cells were washed in PBS. The fluorescence-plate reader measured the intensity of fluorescence at (X485/528).
As a Comparative Example, the same test was done on lutein 10 μg/mL (compare and contrast).
Also, as a Comparative Example, the same test was done on the bilberry extract (Indena) and on the black currant extract (Tama Biochemical Co., Ltd.).
Furthermore, the same tests were done on the following examples.
Regarding Fr. 2: delphinidin-3,5-diglucoside (Working Example 3), Fr. 6: delphinidin-3-glucoside (Working Example 5) and delphinidin-3-rutinoside (Comparative Example 1: substance contained in cassis), the same evaluation as in Test Example 2 was done.
Regarding Fr. 6 delphinidin-3-glucoside (Working Example 5) and the other anthocyanin series (petunidin-3-glucoside, peonidin-3-glucoside, malvidin-3-glucoside and cyaniding-3-glucoside), the evaluation of Test Example 2 was done.

lacrimal cells = experiment: Absorption test of anthocyanins into lacrimal cells (HPLC); assay type: in vitro ADME; conditions: 100 μM, 30 minutes at 37 degrees Celsius, compared with D3G and D3R
Experimental: The test was done in the following way. Each anthocyanin (of delphinidin-3,5-diglucoside, delphinidin-3-O-glucoside and delphinidin-3-Orutinoside) was added to the lachrymal-cells suspension at the final concentration of 100 μM.
After that, the suspension was incubated for 30 minutes at 37 degrees Celsius. Then, the cells were washed and suspended again in the buffer. Thus, the amount of anthocyanin was analyzed by HPLC. The analysis is as follows.
The condition of HPLC is as follows:
Column: YMC UltraHT Pro C18 dia.2.0×100 mm
Column temperature: 30 degrees Celsius
Eluent: A=0.3% TFA aqueous solution, B=acetonitrile
Flow rate: 0.3 mL/min, Injection volume: 50 μL
Quantitative limit: 2 ng/mL (cyaniding-3-O-glucoside)

| SMILES | inhibition of radical oxygen by isolated delphinidin glycosides, FIG. 6 [1] | inhibition of radical oxygen in lacrimal cells, FIG. 12 [1] | action in inhibiting radical oxygen in lacrimal cells compared to other anthocyanins, FIG. 13 ([1]; comparison with petunidin-, peonidin-, malvidin- and cyanidin-3-glucoside) | amount of absorption of anthocyanin into the lacrimal cells, FIG. 14 (lacrimal cells) |
| --- | --- | --- | --- | --- |
| OC[C@H]1O[C@@H](Oc2cc(O)cc3[o+]c(-c4cc(O)c(O)c(O)c4)c(O[C@@H]4O[C@H](CO)[C@@H](O)[C@H](O)[C@H]4O[C@@H]4OC[C@@H](O)[C@H](O)[C@H]4O)cc23)[C@H](O)[C@@H](O)[C@@H]1O [Fr. 1, Delphinidin-3sambubioside-5-glucoside] | significantly inhibited |  |  |  |
| OC[C@H]1O[C@@H](Oc2cc3c(O[C@@H]4O[C@H](CO)[C@@H](O)[C@H](O)[C@H]4O)cc(O)cc3[o+]c2-c2cc(O)c(O)c(O)c2)[C@H](O)[C@@H](O)[C@@H]1O [Fr. 2, Delphinidin-3,5-diglucoside] | significantly inhibited | excellent inhibitory action | especially excellent action | absorbed by the lacrimal cells more |
| OC[C@H]1O[C@@H](Oc2cc3c(O)cc(O)cc3[o+]c2-c2cc(O)c(O)c(O)c2)[C@H](O[C@@H]2OC[C@@H](O)[C@H](O)[C@H]2O)[C@@H](O)[C@@H]1O [Fr. 5, Delphinidin-3-sambubioside] | significantly inhibited |  |  |  |
| OC[C@H]1O[C@@H](Oc2cc3c(O)cc(O)cc3[o+]c2-c2cc(O)c(O)c(O)c2)[C@H](O)[C@@H](O)[C@@H]1O [Fr. 6, Delphinidin-3-glucoside] | significantly inhibited | inhibited |  |  |
| CC1O[C@@H](OC[C@H]2OC(Oc3cc4c(O)cc(O)cc4[o+]c3-c3cc(O)c(O)c(O)c3)[C@H](O)C(O)C2O)C(O)C(O)[C@H]1O (stereo partly drawn) [delphinidin-3-rutinoside, reference compound] |  | did not inhibit |  |  |
